Assay [1] deals with T1, purified recombinant human PI3K enzyme δ (Homo sapiens, UniProt O00329).
T1 construct: purchased Invitrogen, USA
Put plainly: Inhibition of PI3-Kinase enzymatic activity (HTRF enzyme assay), δ. The assay is classed as biochemical. To be noted: 1 μM compound; PI3K δ 50 ng/well; PIP2 10 μM; ATP 200 μM; read-out: Percentage inhibition of PI3K activity, δ. The gist of the method: (§1)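 HTRF assay with compound at 1 μM (1.0% DMSO), recombinant human PI3Kδ (50 ng/well) or γ (100 ng/well) and PIP2 (10 μM), preincubated 15 min at room temperature. ATP (δ 200 μM, γ 50 μM) was then added for 30 min at room temperature. Percent inhibition was derived from the 665/615 nm signal ratio.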

For assay [2], the target named is T2, purified recombinant human PI3K enzyme γ (Homo sapiens, UniProt P48736).
T2 construct: purchased Invitrogen, USA
Briefly: Inhibition of PI3-Kinase enzymatic activity (HTRF enzyme assay), γ. To be noted: 1 μM compound; PI3K γ 100 ng/well; PIP2 10 μM; ATP 50 μM; read-out: Percentage inhibition of PI3K activity, γ. It counts as biochemical. The gist of the method: as §1

This passage reports inhibition results from patent US20190127381A1, “SUBSTITUTED FUSED PYRIMIDINONE COMPOUNDS” (TORRENT PHARMACEUTICALS LIMITED, priority 2016, published 2019).

Broadly, the inhibition is how much of the control response was suppressed.

Where only a bound is given, the exact number is not on record here.

T1 sequence (O00329 whole entry): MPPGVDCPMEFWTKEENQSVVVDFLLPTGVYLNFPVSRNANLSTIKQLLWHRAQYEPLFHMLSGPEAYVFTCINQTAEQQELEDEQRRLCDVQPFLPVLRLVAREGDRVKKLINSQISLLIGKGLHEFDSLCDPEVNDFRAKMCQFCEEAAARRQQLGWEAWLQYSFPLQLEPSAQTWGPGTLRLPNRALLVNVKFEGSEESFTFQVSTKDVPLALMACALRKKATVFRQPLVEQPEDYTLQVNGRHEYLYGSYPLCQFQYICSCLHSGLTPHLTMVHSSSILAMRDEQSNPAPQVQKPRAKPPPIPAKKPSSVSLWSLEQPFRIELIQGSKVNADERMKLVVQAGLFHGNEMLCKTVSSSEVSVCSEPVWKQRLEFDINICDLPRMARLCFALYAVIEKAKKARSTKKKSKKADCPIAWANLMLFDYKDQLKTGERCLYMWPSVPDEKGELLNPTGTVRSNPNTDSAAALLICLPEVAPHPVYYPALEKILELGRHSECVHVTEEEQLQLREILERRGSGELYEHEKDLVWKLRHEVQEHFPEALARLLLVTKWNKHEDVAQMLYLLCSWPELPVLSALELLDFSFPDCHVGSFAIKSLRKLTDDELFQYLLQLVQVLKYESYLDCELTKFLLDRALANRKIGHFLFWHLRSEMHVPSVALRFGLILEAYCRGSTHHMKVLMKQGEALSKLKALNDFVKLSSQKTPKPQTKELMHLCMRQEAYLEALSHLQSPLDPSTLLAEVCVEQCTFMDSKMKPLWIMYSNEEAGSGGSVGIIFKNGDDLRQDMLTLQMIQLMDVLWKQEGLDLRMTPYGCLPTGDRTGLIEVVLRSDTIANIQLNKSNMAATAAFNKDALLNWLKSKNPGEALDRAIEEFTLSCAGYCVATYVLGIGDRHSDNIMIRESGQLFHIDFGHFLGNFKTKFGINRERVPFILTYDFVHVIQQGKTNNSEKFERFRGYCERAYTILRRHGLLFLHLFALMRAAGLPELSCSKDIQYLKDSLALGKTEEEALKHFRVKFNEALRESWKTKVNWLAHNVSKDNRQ
T1 sequence (P27986 whole entry partner): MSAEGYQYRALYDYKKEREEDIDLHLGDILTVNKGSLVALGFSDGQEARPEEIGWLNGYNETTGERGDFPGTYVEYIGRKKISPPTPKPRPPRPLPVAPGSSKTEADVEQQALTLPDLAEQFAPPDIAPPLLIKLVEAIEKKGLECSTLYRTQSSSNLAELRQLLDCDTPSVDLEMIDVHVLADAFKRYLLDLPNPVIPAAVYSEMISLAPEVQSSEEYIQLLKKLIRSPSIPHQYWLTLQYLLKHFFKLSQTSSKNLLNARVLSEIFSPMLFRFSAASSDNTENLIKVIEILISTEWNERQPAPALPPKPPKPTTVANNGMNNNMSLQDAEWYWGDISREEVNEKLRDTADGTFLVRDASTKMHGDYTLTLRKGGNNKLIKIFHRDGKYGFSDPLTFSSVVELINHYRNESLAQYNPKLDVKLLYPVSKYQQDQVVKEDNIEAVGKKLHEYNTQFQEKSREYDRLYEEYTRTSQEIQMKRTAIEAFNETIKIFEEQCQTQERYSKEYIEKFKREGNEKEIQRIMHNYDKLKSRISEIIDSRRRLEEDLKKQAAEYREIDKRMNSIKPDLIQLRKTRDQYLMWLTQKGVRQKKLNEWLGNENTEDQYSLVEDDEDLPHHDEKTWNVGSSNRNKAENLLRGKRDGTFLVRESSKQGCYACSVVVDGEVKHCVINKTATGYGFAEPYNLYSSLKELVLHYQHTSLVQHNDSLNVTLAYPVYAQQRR
T2 sequence (P48736 whole entry): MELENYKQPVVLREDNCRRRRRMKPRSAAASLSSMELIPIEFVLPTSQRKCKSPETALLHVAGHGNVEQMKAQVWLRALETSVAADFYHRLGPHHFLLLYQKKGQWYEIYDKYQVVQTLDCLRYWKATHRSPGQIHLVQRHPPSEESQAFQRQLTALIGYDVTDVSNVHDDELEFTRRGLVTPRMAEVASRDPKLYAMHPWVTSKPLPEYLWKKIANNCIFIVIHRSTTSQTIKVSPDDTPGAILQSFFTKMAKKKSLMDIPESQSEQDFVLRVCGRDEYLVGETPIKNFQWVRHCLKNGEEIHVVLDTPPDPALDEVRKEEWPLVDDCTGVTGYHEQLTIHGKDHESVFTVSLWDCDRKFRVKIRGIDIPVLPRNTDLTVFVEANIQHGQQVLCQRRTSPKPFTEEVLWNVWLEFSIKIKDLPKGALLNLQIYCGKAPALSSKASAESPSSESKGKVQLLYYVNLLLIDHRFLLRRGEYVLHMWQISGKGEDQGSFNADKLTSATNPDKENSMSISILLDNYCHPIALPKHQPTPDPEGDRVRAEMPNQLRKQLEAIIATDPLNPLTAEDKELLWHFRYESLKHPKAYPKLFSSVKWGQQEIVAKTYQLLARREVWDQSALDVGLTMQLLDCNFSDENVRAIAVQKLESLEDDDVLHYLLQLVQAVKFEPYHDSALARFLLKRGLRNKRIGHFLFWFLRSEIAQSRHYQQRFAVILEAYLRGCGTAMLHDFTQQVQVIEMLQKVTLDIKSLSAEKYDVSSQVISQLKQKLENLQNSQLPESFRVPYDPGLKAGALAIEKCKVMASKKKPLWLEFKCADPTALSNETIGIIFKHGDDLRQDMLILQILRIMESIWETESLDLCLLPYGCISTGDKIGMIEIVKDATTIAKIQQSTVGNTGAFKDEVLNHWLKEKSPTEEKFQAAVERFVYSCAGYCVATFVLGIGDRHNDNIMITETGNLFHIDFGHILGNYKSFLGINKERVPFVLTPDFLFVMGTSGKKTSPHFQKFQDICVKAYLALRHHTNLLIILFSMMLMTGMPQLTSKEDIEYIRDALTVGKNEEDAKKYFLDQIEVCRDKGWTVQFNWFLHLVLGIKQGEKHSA

Regarding `CC1(C)Cc2c(-c3nn(Cc4nc5cccc(-c6ccoc6)c5c(=O)n4-n4cccc4)c4ncnc(N)c34)ccc(O)c2O1` [compound 23, 2-{[4-amino-3-(7-hydroxy-2,2-dimethyl-2,3-dihydro-1-benzofuran-4-yl)-1H-pyrazolo[3,4-d]pyrimidin-1-yl]methyl}-5-(furan-3-yl)-3-(1H-pyrrol-1-yl)quinazolin-4(3H)-one], the inhibition at 1 µM in assay [1] and in assay [2] was 80 to 100% throughout.

As to `CC1(C)Cc2c(-c3nn(Cc4nc5cccc(C#CCN6CCOCC6)c5c(=O)n4C4(c5ccsc5)CC4)c4ncnc(N)c34)ccc(O)c2O1` [compound 72, 2-{[4-amino-3-(7-hydroxy-2,2-dimethyl-2,3-dihydro-1-benzofuran-4-yl)-1H-pyrazolo[3,4-d]pyrimidin-1-yl]methyl}-5-[3-(morpholin-4-yl)prop-1-yn-1-yl]-3-[1-(thiophen-3-yl)cyclopropyl]quinazolin-4(3H)-one], the inhibition at 1 µM in assay [1] and in assay [2] was 80 to 100% each time.

In the case of `Cc1cccc(C2(n3c(Cn4nc(-c5ccc(O)c6c5CC(C)(C)O6)c5c(N)ncnc54)nc4cccc(-c5ccnn5C)c4c3=O)CC2)c1` [compound 33, 2-{[4-amino-3-(7-hydroxy-2,2-dimethyl-2,3-dihydro-1-benzofuran-4-yl)-1H-pyrazolo[3,4-d]pyrimidin-1-yl]methyl}-3-[1-(3-methylphenyl)cyclopropyl]-5-(1-methyl-1H-pyrazol-5-yl)quinazolin-4(3H)-one], the inhibition at 1 µM in assay [1] fell in the range of 80 to 100%; in assay [2], 60 to 80%.

With `Cc1ccc(C2(n3c(Cn4nc(-c5ccc(O)c6c5CC(C)(C)O6)c5c(N)ncnc54)nc4cccc(C#CCO)c4c3=O)CC2)cc1` [compound 37, 2-{[4-amino-3-(7-hydroxy-2,2-dimethyl-2,3-dihydro-1-benzofuran-4-yl)-1H-pyrazolo[3,4-d]pyrimidin-1-yl]methyl}-5-(3-hydroxyprop-1-yn-1-yl)-3-[1-(4-methylphenyl)cyclopropyl]quinazolin-4(3H)-one], the inhibition at 1 µM in assay [1] and in assay [2] was 80 to 100% throughout.

For `CC1(C)Cc2c(-c3nn(Cc4nc5cccc(C#CCO)c5c(=O)n4C4(c5ccccc5)CC4)c4ncnc(N)c34)ccc(O)c2O1` [compound 24, 2-{[4-amino-3-(7-hydroxy-2,2-dimethyl-2,3-dihydro-1-benzofuran-4-yl)-1H-pyrazolo[3,4-d]pyrimidin-1-yl]methyl}-5-(3-hydroxyprop-1-yn-1-yl)-3-(1-phenylcyclopropyl)quinazolin-4(3H)-one], the inhibition at 1 µM in assay [1] and in assay [2] was 80 to 100% each time.

For `CC1(C)Cc2c(-c3nn(Cc4nc5cccc(-c6ccsc6)c5c(=O)n4C4(c5ccccc5)CC4)c4ncnc(N)c34)ccc(O)c2O1` [compound 25, 2-{[4-amino-3-(7-hydroxy-2,2-dimethyl-2,3-dihydro-1-benzofuran-4-yl)-1H-pyrazolo[3,4-d]pyrimidin-1-yl]methyl}-3-(1-phenylcyclopropyl)-5-(thiophen-3-yl)quinazolin-4(3H)-one], the inhibition at 1 µM in assay [1] and in assay [2] was 80 to 100% in each case.

For `Cc1cccc2nc(Cn3nc(-c4ccc(O)c5c4CC(C)(C)O5)c4c(N)ncnc43)n(C3(c4cccs4)CC3)c(=O)c12` [compound 60, 2-{[4-amino-3-(7-hydroxy-2,2-dimethyl-2,3-dihydro-1-benzofuran-4-yl)-1H-pyrazolo[3,4-d]pyrimidin-1-yl]methyl}-5-methyl-3-[1-(thiophen-2-yl)cyclopropyl]quinazolin-4(3H)-one], the inhibition at 1 µM in assay [1] lay in the range of 80 to 100%; in assay [2] it was 60 to 80%.

Consider `Cc1ccc(C)n1-n1c(Cn2nc(-c3ccc(O)c4c3CC(C)(C)O4)c3c(N)ncnc32)nc2cccc(C#Cc3cncn3C)c2c1=O` [compound 67, 2-{[4-amino-3-(7-hydroxy-2,2-dimethyl-2,3-dihydro-1-benzofuran-4-yl)-1H-pyrazolo[3,4-d]pyrimidin-1-yl]methyl}-3-(2,5-dimethyl-1H-pyrrol-1-yl)-5-[(1-methyl-1H-imidazol-5-yl)ethynyl]quinazolin-4(3H)-one], for which the inhibition at 1 µM in assay [1] is 80 to 100%; in assay [2], less than 20%.

Consider `CC1(C)Cc2c(-c3nn(Cc4nc5cccc(C#CC6CC6)c5c(=O)n4C4(c5ccsc5)CC4)c4ncnc(N)c34)ccc(O)c2O1` [compound 76, 2-{[4-amino-3-(7-hydroxy-2,2-dimethyl-2,3-dihydro-1-benzofuran-4-yl)-1H-pyrazolo[3,4-d]pyrimidin-1-yl]methyl}-5-(cyclopropylethynyl)-3-[1-(thiophen-3-yl)cyclopropyl]quinazolin-4(3H)-one], for which the inhibition at 1 µM in assay [1] and in assay [2] was 80 to 100% in each case.

With `CC1(C)Cc2c(-c3nn(Cc4nc5cccc(Cl)c5c(=O)n4-n4cc5ccccc5n4)c4ncnc(N)c34)ccc(O)c2O1` [Compound No. 4, 2-{[4-amino-3-(7-hydroxy-2,2-dimethyl-2,3-dihydro-1-benzofuran-4-yl)-1H-pyrazolo[3,4-d]pyrimidin-1-yl]methyl}-5-chloro-3-(2H-indazol-2-yl)quinazolin-4(3H)-one], the inhibition at 1 µM in assay [1] was in the range of 80 to 100%; in assay [2], 40 to 60%.

For the compound `CC1(C)Cc2c(-c3nn(Cc4nc5cccc(Cl)c5c(=O)n4-n4cccn4)c4ncnc(N)c34)ccc(O)c2O1` [compound 6, 2-{[4-amino-3-(7-hydroxy-2,2-dimethyl-2,3-dihydro-1-benzofuran-4-yl)-1H-pyrazolo[3,4-d]pyrimidin-1-yl]methyl}-5-chloro-3-(1H-pyrazol-1-yl)quinazolin-4(3H)-one], the inhibition at 1 µM in assay [1] fell in the range of 80 to 100%; in assay [2] it was 60 to 80%.

For the compound `CCn1cc(-c2cccc3nc([C@H](C)n4nc(-c5ccc(O)c6c5CC(C)(C)O6)c5c(N)ncnc54)n(-n4cccc4)c(=O)c23)cn1` [compound 99, 2-{(1S)-1-[4-amino-3-(7-hydroxy-2,2-dimethyl-2,3-dihydro-1-benzofuran-4-yl)-1H-pyrazolo[3,4-d]pyrimidin-1-yl]ethyl}-5-(1-ethyl-1H-pyrazol-4-yl)-3-(1H-pyrrol-1-yl)quinazolin-4(3H)-one], the inhibition at 1 µM in assay [1] lay within 80 to 100%; in assay [2], 40 to 60%.

For the compound `Cc1cc(C)n(-n2c(Cn3nc(-c4ccc(O)c5c4CC(C)(C)O5)c4c(N)ncnc43)nc3cccc(Cl)c3c2=O)n1` [compound 12, 2-{[4-amino-3-(7-hydroxy-2,2-dimethyl-2,3-dihydro-1-benzofuran-4-yl)-1H-pyrazolo[3,4-d]pyrimidin-1-yl]methyl}-5-chloro-3-(3,5-dimethyl-1H-pyrazol-1-yl)quinazolin-4(3H)-one], the inhibition at 1 µM in assay [1] and in assay [2] was 80 to 100% each time.

Regarding `Cc1ccccc1C1(n2c(Cn3nc(-c4ccc(O)c5c4CC(C)(C)O5)c4c(N)ncnc43)nc3cccc(-c4ccnn4C)c3c2=O)CC1` [compound 59, 2-{[4-amino-3-(7-hydroxy-2,2-dimethyl-2,3-dihydro-1-benzofuran-4-yl)-1H-pyrazolo[3,4-d]pyrimidin-1-yl]methyl}-3-[1-(2-methylphenyl)cyclopropyl]-5-(1-methyl-1H-pyrazol-5-yl)quinazolin-4(3H)-one], the inhibition at 1 µM was in the range of 80 to 100% in assay [1] and 60 to 80% in assay [2].

On to `CCn1cc(-c2cccc3nc(Cn4nc(-c5ccc(O)c6c5CC(C)(C)O6)c5c(N)ncnc54)n(-n4c(C)ccc4C)c(=O)c23)cn1` [compound 85, 2-{[4-amino-3-(7-hydroxy-2,2-dimethyl-2,3-dihydro-1-benzofuran-4-yl)-1H-pyrazolo[3,4-d]pyrimidin-1-yl]methyl}-3-(2,5-dimethyl-1H-pyrrol-1-yl)-5-(1-ethyl-1H-pyrazol-4-yl)quinazolin-4(3H)-one], for which the inhibition at 1 µM in assay [1] and in assay [2] was 80 to 100% each time.

Turning to `Cc1ccccc1C1(n2c(Cn3nc(-c4ccc(O)c5c4CC(C)(C)O5)c4c(N)ncnc43)nc3cccc(Cl)c3c2=O)CC1` [compound 55, 2-{[4-amino-3-(7-hydroxy-2,2-dimethyl-2,3-dihydro-1-benzofuran-4-yl)-1H-pyrazolo[3,4-d]pyrimidin-1-yl]methyl}-5-chloro-3-[1-(2-methylphenyl)cyclopropyl]quinazolin-4(3H)-one], the inhibition at 1 µM in assay [1] is 80 to 100%; in assay [2] it was 60 to 80%.

Turning to `Cc1ccc(-c2cccc3nc(Cn4nc(-c5ccc(O)c6c5CC(C)(C)O6)c5c(N)ncnc54)n(-n4cccc4)c(=O)c23)o1` [compound 15, 2-{[4-amino-3-(7-hydroxy-2,2-dimethyl-2,3-dihydro-1-benzofuran-4-yl)-1H-pyrazolo[3,4-d]pyrimidin-1-yl]methyl}-5-(5-methylfuran-2-yl)-3-(1H-pyrrol-1-yl)quinazolin-4(3H)-one], the inhibition at 1 µM in assay [1] and in assay [2] was 80 to 100% throughout.

In the case of `Cc1ccc(C)n1-n1c(Cn2nc(-c3ccc(O)c4c3CC(C)(C)O4)c3c(N)ncnc32)nc2cccc(C#CCO)c2c1=O` [compound 42, 2-{[4-amino-3-(7-hydroxy-2,2-dimethyl-2,3-dihydro-1-benzofuran-4-yl)-1H-pyrazolo[3,4-d]pyrimidin-1-yl]methyl}-3-(2,5-dimethyl-1H-pyrrol-1-yl)-5-(3-hydroxyprop-1-yn-1-yl)quinazolin-4(3H)-one], the inhibition at 1 µM in assay [1] and in assay [2] was 80 to 100% throughout.

For `Cc1ccccc1C1(n2c(Cn3nc(-c4ccc(O)c5c4CC(C)(C)O5)c4c(N)ncnc43)nc3cccc(C)c3c2=O)CC1` [compound 56, 2-{[4-amino-3-(7-hydroxy-2,2-dimethyl-2,3-dihydro-1-benzofuran-4-yl)-1H-pyrazolo[3,4-d]pyrimidin-1-yl]methyl}-5-methyl-3-[1-(2-methylphenyl)cyclopropyl]quinazolin-4(3H)-one], the values for the inhibition at 1 µM in assay [1] and in assay [2] were 80 to 100% and 60 to 80%, respectively.
